ChEMBL document CHEMBL1132069, “Syntheses of two trimannose analogs each containing C-mannosyl or 5-thio-C-mannosyl residue: their affinities to concanavalin A” (Bioorg Med Chem Lett, 1999)
pKd: −log10 of the molar value.

Assay: Dissociation constant for the binding of compound to concanavalin A (Con A) was determined by fluorescence anisotropy inhibition assay.

`OC[C@@H]1O[C@H](CC[C@@H]2O[C@H](O)[C@H](O)[C@@H](O[C@H]3O[C@@H](CO)[C@@H](O)[C@H](O)[C@H]3O)[C@@H]2O)[C@H](O)[C@@H](O)[C@@H]1O` showed a pKd of 3.70.
Work on `OC[C@@H]1O[C@H](O[C@@H]2[C@@H](O)[C@@H](O)O[C@@H](CC[C@H]3S[C@@H](CO)[C@@H](O)[C@H](O)[C@H]3O)[C@H]2O)[C@H](O)[C@@H](O)[C@@H]1O` yielded a pKd of 4.51.
